# In patent publication US20260207623A1, “USE OF ESTETROL IN HEPATICALLY IMPAIRED PATIENTS” (ESTETRA SRL, priority 2022, published 2026):
# Legend:
# [1] = test system: triglycerides, glucose, cholesterol, HDL-cholesterol, LDL-cholesterol level; test: Example 2 section F: lipid parameters and glucose level (triglycerides, glucose, cholesterol, HDL-cholesterol, LDL-cholesterol) at 15 mg and 20 mg daily doses; type: in vivo, human
# Experimental: In order to better assess the potential for increasing the daily dose beyond the minimum effective dose of 15 mg estetrol monohydrate daily, a number of parameters were followed in a study where estetrol monohydrate was administered at the increased dose of 20 mg per day.
# 1. Triglycerides Level (mmol/L)
# 2. Glucose Level (mmol/L)
# 3. Cholesterol Level (mmol/L)
# 4. HDL-Cholesterol Level (mmol/L)
# 5. LDL-Cholesterol Level (mmol/L)
# post-menopausal women = test: Example 2 dose-finding study: Hot Flush Weekly Weighted Score; type: in vivo, human; conditions: 2.5 mg daily
# Experimental: Further, the terms “Hot Flush Weekly Weighted Score”, as used herein, corresponds to a score taking into account frequency and severity which is calculated by using the severity score (as calculated above): [(1×No. of mild VMS)+(2×No. of moderate VMS)+(3×No. of severe VMS)] during a 7 day period.
# All treatments (Estetrol, hereinafter E4 as monohydrate, [2.5 mg, 5 mg, 10 mg, 15 mg] capsule) were administered once daily (QD) per os for at least 12 consecutive weeks until the last biological assessments (Day 91 maximum) had been performed.
# A further analysis of the results was thus prepared, where data from these two doses were grouped with the placebo dose and compared to the 10 mg and 15 mg estetrol monohydrate doses.
smiles,measurement,setting,value
"C[C@]12CC[C@@H]3c4ccc(O)cc4CC[C@H]3[C@@H]1[C@@H](O)[C@@H](O)[C@@H]2O [E4 monohydrate, estetrol monohydrate]","Cholesterol level, Baseline, Mean",[1]; 15 mg daily,5.51 mmol/L
same,"Cholesterol level, Baseline, Median",[1]; 15 mg daily,5.62 mmol/L
same,"Glucose level, Baseline, Mean",[1]; 15 mg daily,4.77 mmol/L
same,"Glucose level, Baseline, Median",[1]; 15 mg daily,4.72 mmol/L
same,"HDL-Cholesterol level, Baseline, Mean",[1]; 15 mg daily,1.73 mmol/L
same,"HDL-Cholesterol level, Baseline, Median",[1]; 15 mg daily,1.66 mmol/L
same,"LDL-Cholesterol level, Baseline, Mean",[1]; 15 mg daily,3.05 mmol/L
same,"LDL-Cholesterol level, Baseline, Median",[1]; 15 mg daily,3.22 mmol/L
same,"Triglycerides level, Baseline, Mean",[1]; 15 mg daily,1.32 mmol/L
same,"Triglycerides level, Baseline, Median",[1]; 15 mg daily,1.21 mmol/L
same,"Cholesterol level, End Of Treatment Actual Change from Baseline, Mean","[1]; 15 mg daily, after 12 weeks",0.12 mmol/L
same,"Cholesterol level, End Of Treatment Actual Change from Baseline, Median","[1]; 15 mg daily, after 12 weeks",0.08 mmol/L
same,"Cholesterol level, End Of Treatment Actual Value, Mean","[1]; 15 mg daily, after 12 weeks",5.63 mmol/L
same,"Cholesterol level, End Of Treatment Actual Value, Median","[1]; 15 mg daily, after 12 weeks",5.71 mmol/L
same,"Glucose level, End Of Treatment Actual Change from Baseline, Mean","[1]; 15 mg daily, after 12 weeks",0.02 mmol/L
same,"Glucose level, End Of Treatment Actual Change from Baseline, Median","[1]; 15 mg daily, after 12 weeks",0.05 mmol/L
same,"Glucose level, End Of Treatment Actual Value, Mean","[1]; 15 mg daily, after 12 weeks",4.79 mmol/L
same,"Glucose level, End Of Treatment Actual Value, Median","[1]; 15 mg daily, after 12 weeks",4.77 mmol/L
same,"HDL-Cholesterol level, End Of Treatment Actual Change from Baseline, Mean","[1]; 15 mg daily, after 12 weeks",0.16 mmol/L
same,"HDL-Cholesterol level, End Of Treatment Actual Change from Baseline, Median","[1]; 15 mg daily, after 12 weeks",0.17 mmol/L
same,"HDL-Cholesterol level, End Of Treatment Actual Value, Mean","[1]; 15 mg daily, after 12 weeks",1.89 mmol/L
same,"HDL-Cholesterol level, End Of Treatment Actual Value, Median","[1]; 15 mg daily, after 12 weeks",1.81 mmol/L
same,"LDL-Cholesterol level, End Of Treatment Actual Change from Baseline, Mean","[1]; 15 mg daily, after 12 weeks",0.09 mmol/L
same,"LDL-Cholesterol level, End Of Treatment Actual Change from Baseline, Median","[1]; 15 mg daily, after 12 weeks",0.10 mmol/L
same,"LDL-Cholesterol level, End Of Treatment Actual Value, Mean","[1]; 15 mg daily, after 12 weeks",3.14 mmol/L
same,"LDL-Cholesterol level, End Of Treatment Actual Value, Median","[1]; 15 mg daily, after 12 weeks",3.25 mmol/L
same,"Triglycerides level, End Of Treatment Actual Change from Baseline, Mean","[1]; 15 mg daily, after 12 weeks",0.20 mmol/L
same,"Triglycerides level, End Of Treatment Actual Change from Baseline, Median","[1]; 15 mg daily, after 12 weeks",0.15 mmol/L
same,"Triglycerides level, End Of Treatment Actual Value, Mean","[1]; 15 mg daily, after 12 weeks",1.61 mmol/L
same,"Triglycerides level, End Of Treatment Actual Value, Median","[1]; 15 mg daily, after 12 weeks",1.40 mmol/L
same,"Cholesterol level, Baseline, Mean",[1]; 20 mg daily,6.27 mmol/L
same,"Cholesterol level, Baseline, Median",[1]; 20 mg daily,6.25 mmol/L
same,"Glucose level, Baseline, Mean",[1]; 20 mg daily,5.53 mmol/L
same,"Glucose level, Baseline, Median",[1]; 20 mg daily,5.60 mmol/L
same,"HDL-Cholesterol level, Baseline, Mean",[1]; 20 mg daily,1.68 mmol/L
same,"HDL-Cholesterol level, Baseline, Median",[1]; 20 mg daily,1.60 mmol/L
same,"LDL-Cholesterol level, Baseline, Mean",[1]; 20 mg daily,3.94 mmol/L
same,"LDL-Cholesterol level, Baseline, Median",[1]; 20 mg daily,4.00 mmol/L
same,"Triglycerides level, Baseline, Mean",[1]; 20 mg daily,1.43 mmol/L
same,"Triglycerides level, Baseline, Median",[1]; 20 mg daily,1.40 mmol/L
same,lipid parameters and glucose level,[1]; 20 mg daily dose in place of 15 mg daily dose,do not behave significantly differently
same,"Cholesterol level, End Of Treatment Actual Change from Baseline, Mean","[1]; 20 mg daily, after 28 days",-0.18 mmol/L
same,"Cholesterol level, End Of Treatment Actual Change from Baseline, Median","[1]; 20 mg daily, after 28 days",-0.20 mmol/L
same,"Cholesterol level, End Of Treatment Actual Value, Mean","[1]; 20 mg daily, after 28 days",6.09 mmol/L
same,"Cholesterol level, End Of Treatment Actual Value, Median","[1]; 20 mg daily, after 28 days",6.10 mmol/L
same,"Glucose level, End Of Treatment Actual Change from Baseline, Mean","[1]; 20 mg daily, after 28 days",-0.10 mmol/L
same,"Glucose level, End Of Treatment Actual Change from Baseline, Median","[1]; 20 mg daily, after 28 days",-0.15 mmol/L
same,"Glucose level, End Of Treatment Actual Value, Mean","[1]; 20 mg daily, after 28 days",5.44 mmol/L
same,"Glucose level, End Of Treatment Actual Value, Median","[1]; 20 mg daily, after 28 days",5.60 mmol/L
same,"HDL-Cholesterol level, End Of Treatment Actual Change from Baseline, Mean","[1]; 20 mg daily, after 28 days",0.29 mmol/L
same,"HDL-Cholesterol level, End Of Treatment Actual Change from Baseline, Median","[1]; 20 mg daily, after 28 days",0.35 mmol/L
same,"HDL-Cholesterol level, End Of Treatment Actual Value, Mean","[1]; 20 mg daily, after 28 days",1.97 mmol/L
same,"HDL-Cholesterol level, End Of Treatment Actual Value, Median","[1]; 20 mg daily, after 28 days",1.90 mmol/L
same,"LDL-Cholesterol level, End Of Treatment Actual Change from Baseline, Mean","[1]; 20 mg daily, after 28 days",-0.51 mmol/L
same,"LDL-Cholesterol level, End Of Treatment Actual Change from Baseline, Median","[1]; 20 mg daily, after 28 days",-0.65 mmol/L
same,"LDL-Cholesterol level, End Of Treatment Actual Value, Mean","[1]; 20 mg daily, after 28 days",3.43 mmol/L
same,"LDL-Cholesterol level, End Of Treatment Actual Value, Median","[1]; 20 mg daily, after 28 days",3.45 mmol/L
same,"Triglycerides level, End Of Treatment Actual Change from Baseline, Mean","[1]; 20 mg daily, after 28 days",0.10 mmol/L
same,"Triglycerides level, End Of Treatment Actual Change from Baseline, Median","[1]; 20 mg daily, after 28 days",0.10 mmol/L
same,"Triglycerides level, End Of Treatment Actual Value, Mean","[1]; 20 mg daily, after 28 days",1.53 mmol/L
same,"Triglycerides level, End Of Treatment Actual Value, Median","[1]; 20 mg daily, after 28 days",1.40 mmol/L
same,"Hot Flush Weekly Weighted Score, relative change (% from baseline), Mean",post-menopausal women; week 0,0%
same,"Hot Flush Weekly Weighted Score, relative change (% from baseline), Mean",post-menopausal women; week 1,−22%
same,"Hot Flush Weekly Weighted Score, relative change (% from baseline), Mean",post-menopausal women; week 2,−32%
same,"Hot Flush Weekly Weighted Score, relative change (% from baseline), Mean",post-menopausal women; week 3,−43%
